We go through one compound from US12642768B2, “Lipid nanoparticles” (Beijing Jitai Life Sciences Ltd, priority 2022, dated 2026).

Data set [1] is described as follows: Particle size and PDI of lipid nanoparticles by dynamic light scattering. To be noted: LNP 50:38.5:10:1.5, N/P 6, luciferase mRNA. Format: physicochemical. The protocol: Lipid nanoparticles were prepared by (1) dissolving and mixing ionizable lipid compounds, cholesterol, phospholipids and polyethylene glycolated lipids in ethanol at (molar percentages) 50%, 38.5%, 10% and 1.5%, respectively; (2) dissolving the mRNA active ingredient in 25 mM sodium acetate solution (pH=4.5); (3) using an automated high-throughput microfluidic system to mix the organic phase containing the lipid mixture and the aqueous phase containing the mRNA component in the flow ratio range of 1:1 to 1:4 at a mixing speed of 10 mL/min to 18 mL/min; (4) the prepared lipid nanoparticles (N/P ratio of 6) were diluted with phosphate buffer solution and the nanoparticle solutions were ultrafiltered to the original preparation volume using ultrafiltration tubes (purchased from Millipore) with a cut-off molecular weight of 30 kDa; and (5) the obtained nanoparticles were filtered through a sterile 0.2 μm filter membrane and then stored in a sealed glass vial at low temperature.
The particle size and particle size dispersity index (PDI) of the prepared lipid nanoparticles were measured using a Zetasizer Pro (purchased from Malvern Instruments Ltd) and a DynaPro NanoStar (purchased from Wyatt) dynamic light scattering instrument. The degree of RNA encapsulation by lipid nanoparticles was characterized by the Encapsulation Efficiency %, which reflects the degree of binding of lipid nanoparticles to RNA fragments. This parameter was measured by the method of Quant-it™ RiboGreen RNA Assay (purchased from Invitrogen). Lipid nanoparticle samples were diluted in TE buffer (10 mM Tris-HCl, 1 mM EDTA, pH=7.5). A portion of the sample solution was removed, to which 0.5% Triton (Triton X-100) was added, and then allowed to stand at 37° C. for 30 minutes. Immediately after the addition of RIBOGREEN® reaction solution, the fluorescence values were read on a Varioskan LUX multifunctional microplate reader (purchased from Thermofisher) at 485 nm for absorption and 528 nm for emission to give the encapsulation efficiency values.

Data set [2] deals with C57BL/6 mice. Put plainly: Animal experiment: in vivo bioluminescence after i.v. lipid nanoparticles encapsulated with luciferase mRNA. Conditions: compound 20 vs. D1, compound 46 vs. D2. The protocol: The delivery effect and safety of nanoparticles encapsulated with luciferase mRNA (Trilink, L-7202) in mice were evaluated. The test mice were SPF-grade C57BL/6 mice, female, 6-8 weeks old, weighing 18-22 g, and were purchased from SPF (Beijing) Biotechnology Co., Ltd. All animals were acclimatized for more than 7 days prior to the experiment, and had free access to food and water during the experiment. The conditions include alternating light and dark for 12/12 h, the indoor temperature of 20-26° C. and the humidity of 40-70%. The mice were randomly grouped. […] The anesthetized mice were placed in IVIS for fluorescence imaging, and data acquisition and analysis were performed on the concentrated distribution area of fluorescence.
The in vivo delivery efficiency of lipid nanoparticle carriers was expressed as the mean values of fluorescence intensity and total photon count in different animals within the same subject group, as shown in Table 5. Higher values of fluorescence intensity and total photon count indicate higher in vivo delivery efficiency of this mRNA fragment by lipid nanoparticles. […]

Turning to `CCCCCCCCCOC(=O)C(C)(C)CCCCCC(CCCCCC(C)(C)C(=O)OCC(CCCCC)CCCCCCC)OC(=O)CCCN(C)C` (centres unmarked) [Compound 46], in data set [1], the “Particle size dispersity (PDI)” value turned out to be 0.09. Also, in data set [2], the “in vivo delivery efficiency compared with the molecule without tetramethyl” value is “significantly increased in vivo delivery efficiency”.
